# According to ChEMBL document CHEMBL1122097 (J Med Chem, 1982):
# Assays:
# [1] = Tested in vitro for its ability to displace 3[H] clozapine from non-muscarinic receptor in rat brain; assay type: tissue-based
# Dopamine receptor = assay: Displacement of 3[H]spiroperidol from Dopamine receptor in rat brain
# [2] = biological target: Muscarinic acetylcholine receptor; assay: Tested in vitro for its ability to displace 3[H] clozapine from Muscarinic acetylcholine receptor in rat brain; assay type: tissue-based
SMILES,IC50 [1] [nM],IC50 (Dopamine receptor) [nM],IC50 [2] [nM]
CN1CCN(C2=Cc3ccccc3Cc3ccc(Cl)cc32)CC1,10,–,–
CN1CCN(C2=Cc3ccccc3Oc3ccccc32)CC1,4,1500,2290
CN1CCN(C2=Nc3ccccc3Nc3ccc(Cl)cc32)CC1 [ISOCLOZAPINE],17,–,28
CN1CCN(C2=Cc3ccccc3Oc3ccc(Cl)cc32)CC1,7.3,27,2027
CN1CCN(C2=Cc3ccccc3Cc3ccccc32)CC1,3.7,–,–
CN1CCN(C2=Nc3ccccc3Nc3ccccc32)CC1,25,> 10000,–
CN1CCN(C2=Cc3cc(Cl)ccc3Cc3ccccc32)CC1,13,–,–
CN1CCN(C2=Cc3cc(Cl)ccc3Oc3ccccc32)CC1,9.4,357,1970
CN1CCN(C2=Nc3cc(Cl)ccc3Nc3ccccc32)CC1 [CLOZAPINE],13,–,–
